Assay results as given in US20050137130A1, “Medical treatment” (priority 2001, published 2005).

Columns and labels:
Type in all cases: cell-based
[1] = test system: activated human CD4+ T cells; experiment: Cytokine production (ELISA) by human CD4+ T cells stimulated with anti-CD3/CD28 beads and Delta1 beads, with added soluble protein; settings: increasing amounts of soluble protein in culture medium, 3 days
Protocol: M450 Streptavidin Dynabead™ magnetic beads (Dynal, USA) were coated with an anti-human-IgG4 biotinylated monoclonal antibody (BD Bioscience, 555879) by rotating them in the presence of the antibody for 30 minutes at room temperature. Beads were washed three times with PBS (1 ml). They were further incubated with hDelta1-hIgG4 (see Example 1 above) for 2 hours at room temperature and then washed three times with PBS (1 ml).
Human peripheral blood mononuclear cells (PBMC) were purified from blood using Ficoll-Paque separation medium (Pharmacia). Briefly, 28 ml of blood were overlaid on 21 ml of Ficoll-Paque separation medium and centrifuged at 18-20° C. for 40 minutes at 400 g. PBMC were recovered from the interface and washed 3 times before use for CD4+ T cell purification.
The CD4+ T cells were incubated in triplicates in a 96-well-plate (flat bottom) at 10^5 CD4/well/200 μl in RPMI medium containing 10% FCS, glutamine, penicillin, streptomycin and β2-mercaptoethanol.
Cytokine production was induced by stimulating the cells with anti-CD3/CD28 T cell expander beads from Dynal at a 1:1 ratio (bead/cell) in the presence of beads coated with hDelta1-IgG4Fc fusion protein (Example 1 above) at a 5:1 ratio (beads/cell). In some wells, increasing amounts of soluble hdelta1-IgG4Fc fusion protein were also added.
(§1) The supernatants were removed after 3 days of incubation at 37° C./5% CO2/humidified atmosphere and cytokine production was evaluated by ELISA using Pharmingen kits OptEIA Set human IL10 (catalog No. 555157), OptEIA Set human IL-5 (catalog No. 555202) for IL-10 and IL-5 respectively according to the manufacturer's instructions.
Human peripheral blood mononuclear cells (PBMC) were purified from blood using Ficoll-Paque separation medium (Pharmacia). […]
as §1, with “(Catalog” for “(catalog”, “instructions. […]” for “instructions.”

[2] = test system: Notch signalling from Delta (A20-Delta cells, mouse Delta1); experiment: Antagonism of A20-Delta Notch signalling (N27#11 luciferase reporter); settings: A20-Delta cells 1×10^5 per well; IgG4 as control
Excerpt: (§2) The IVS, IRES, Neo and pA elements were removed from plasmid pIRESneo2 (Clontech, USA) and inserted into a pUC cloning vector downstream of a chicken beta-actin promoter (eg see GenBank Accession No E02199). Mouse Delta-1 cDNA (eg see GenBank Accession No NM_007865) was inserted between the actin promoter and IVS elements and a sequence with multiple stop codons in all three reading frames was inserted between the Delta and IVS elements.
(§3) The resulting construct was transfected into A20 cells using electroporation and G418 to provide A20 cells expressing mouse Delta1 on their surfaces (A20-Delta).
(§4) The procedure of Example was repeated using A20-Delta or A20-Jagged cells (1×10^5 per well) in place of CHO-Delta cells. IgG4 was used as a control.

[3] = test system: Notch signalling from Jagged1 (A20-Jagged cells, human Jagged1); experiment: Antagonism of A20-Jagged Notch signalling (N27#11 luciferase reporter); settings: A20-Jagged cells 1×10^5 per well; IgG4 as control
Excerpt: as §2, §3
Corresponding cells (A20-Jagged) were prepared using human Jagged1 cDNA (see e.g. GenBank Accession No U61276).
as §4

Mouse CD4+T-cells = experiment: ELISA assay for Notch signalling modulator activity in mouse CD4+ cells (IL-10, plate-bound hDelta1-IgG4Fc); settings: all concentrations tested, added at start of culture, day 3
Protocol: Spleens were removed from female Balb/c mice 8-10 weeks old and passed through a […] cell strainer into 20 ml R10F medium (R10F-RPMI 1640 media (Gibco Cat No 22409) plus 2 mM L-glutamine, 50 μg/ml Penicillin, 50 μg/ml Streptomycin, 5×10^−5 M β-mercapto-ethanol in 10% fetal calf serum). The cell suspension was spun (1150 rpm 5 min) and the media removed.
The cells were incubated for 4 minutes with 5 ml ACK lysis buffer (0.15M NH4Cl, […], O. 1 mM Na2EDTA in double distilled water) per spleen (to lyse red blood cells). The cells were then washed once with R10F medium and counted. CD4+ cells were purified from the suspensions by positive selection on a Magnetic Associated Cell Sorter (MACS) column (Miltenyi Biotec, Bisley, UK: Cat No 130-042-401) using CD4 (L3T4) beads (Miltenyi Biotec Cat No 130-049-201), according to the manufacturer's directions. […]
Mouse CD4+T-cells (prepared as above) were cultured at 2×10^5/well on anti-CD3 coated plates with or without plate-bound hDelta1-IgG4Fc fusion protein (prepared as described above) and soluble anti-CD28. […] Soluble hDelta1-IgG4Fc fusion protein was added into culture at the start at the concentrations shown and IL-10 was measured in supernatants on day 3 by ELISA using antibody pairs from R & D Systems (Abingdon, UK).

Row | Substance | effect of added soluble protein on the IL-10 enhancement by bead-immobilised Delta1 [1] | inhibition of Notch signalling from Delta [2] | inhibition of Notch signalling from Jagged1 [3] | effect of soluble protein on increased IL-10 release induced by plate-bound hDelta1-IgG4Fc (Mouse CD4+T-cells)
1 | hDelta1-IgG4Fc: fusion protein comprising the extracellular domain of human Delta1 fused to the Fc domain of human IgG4 (SEQ ID NO: 5) | inhibited | able to inhbit Notch signalling | able to inhbit Notch signalling | substantially reversed
2 | hJagged1EGF1&2-IgG4Fc: human jagged1 sequence up to the end of EGF2 (leader, amino terminal, DSL, EGF1+2) fused to the Fc domain of human IgG4 (SEQ ID NO: 10) | inhibited | – | – | –
